Measurements from patent US12655139B2, “Isoxazolidines as RIPK1 inhibitors and use thereof” (SANOFI, priority 2020, dated 2026).
pIC50: −log10 of the molar value. Structures can show the parent of a compound that is named as a salt. Where two headings read alike, the source gives them in different places.

Legend:
[1] = target: T1, hRIPK1 (aa 1-375) fusion protein (Homo sapiens, UniProt Q13546); test: ADP-Glo kinase assay, RIPK1 autophosphorylation; type: biochemical; settings: Table 1
T1 construct: hRIPK1 (aa 1-375) fusion protein
T1 sequence (Q13546 1-375): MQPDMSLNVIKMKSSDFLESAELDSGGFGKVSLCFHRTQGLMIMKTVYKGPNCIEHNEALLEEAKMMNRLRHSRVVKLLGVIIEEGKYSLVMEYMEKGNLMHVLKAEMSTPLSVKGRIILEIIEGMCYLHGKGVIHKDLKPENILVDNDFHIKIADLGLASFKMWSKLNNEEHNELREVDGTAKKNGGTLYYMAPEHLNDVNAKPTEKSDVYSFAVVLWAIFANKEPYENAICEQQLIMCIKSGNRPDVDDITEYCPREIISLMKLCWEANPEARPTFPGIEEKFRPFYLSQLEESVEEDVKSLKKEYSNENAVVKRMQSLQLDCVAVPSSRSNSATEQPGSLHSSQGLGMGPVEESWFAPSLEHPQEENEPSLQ
Description: Evaluation of Receptor-Interacting Protein Kinase 1 Inhibition.
The catalytic activity of RIPK1 was measured by monitoring the conversion of Adenosine triphosphate (ATP) to Adenosine diphosphate (ADP) due to autophosphorylation using an ADP-Glo kinase kit (Promega, catalog no. V9104).
After another 240 minutes incubation at room temperature, 5 μl Promega ADP-Glo reagent I were added to quench the reaction and deplete unconsumed ATP. After an incubation period of 30 minutes, 10 μl Promega ADP-Glo detection reagent II were added resulting in conversion of ADP to ATP, which generates a light-reaction between luciferase and luciferin. Luminescence was quantified after 30 minutes with a Pherastar FS (BMG LABTECH, Ortenberg).
The adjustment was obtained by nonlinear regression using the Levenberg Marquardt algorithm.

U937 cells = test: Cellular assay in U937 cells on cell death (necroptosis), TNFα/zVAD.fmk; type: cell-based; settings: Homo sapiens; for pIC50: U-937, Table 2, read-out: U937 IC50
Excerpt: Cellular Assay in U937 Cells to Measure the Activity of RIPK1-Inhibitors on Cell Death (Necroptosis).
Cell death was quantified in 96 well plates by determination of the amount of live cell using a CellTiter 96 AQueous reagent (Promega), a calorimetric method to measure the amount of live cells by reducing tetrazolium compound [3-(4,5-dimethylthiazol-2-yl)-5-(3-carboxymethoxyphenyl)-2-(4-sulfophenyl)-2H-tetrazolium, inner salt; MTS] into formazan. Absorbance of formazan was read at 490 nm. The inhibitory activity of the test compound was quantified in a concentration response curve (CRC) experiment. Compounds were obtained as 10 mM stock solutions and were diluted 1 to 10 volumes with DMSO to yield a 1 mM solution. From this solution 2 μl were diluted with 998 μl growth medium. 100 μl of 2 μM compound solution was further diluted sequentially with a dilution factor of 2.5 by adding 150 μl growth medium. A total of 10 concentrations were tested ranging from 10 μM to 0.26 nM or from 1 μM to 0.07 nM.
U937 cells were cultured in RPMI1640 Glutamax and 10% heat inactivated FBS. 50 μl cell suspension containing 1×10^6 cells/ml supplemented with 50 μM zVAD.fmk (Benzyloxycarbonyl-Val-Ala-Asp (OMe) fluoromethylketone) and 100 ng/ml recombinant human TNFα were dispensed in each well of a 96-well plate. 50 μl of compound dilutions (see above) were added and the cell suspension incubated overnight (18 to 24 hours) at 37° C., 5% CO2 in a humidified atmosphere (95% rH). High (no compound) and low control (no TNFα, zVAD.fmk) were tested with 7 replicates; all compound concentrations were tested in duplicates on each experimental plate.
CellTiter 96 Aqueous reagent was mixed (100 μl PMS (phenazine methosulfate) solution/2 ml MTS (3-(4,5-[…])-5-(3-carboxymethoxyphenyl)-2-(4-sulfophenyl)-2H-tetrazolium, inner salt) solution) and 20 μl were added per well. After 4 hours incubation at 37° C. (5% CO2 95% rH) optical density was measured at 490 nm on a microplate reader (Tecan Infinite M1000).
The % inhibition is expressed as percentage of the maximal inhibition value obtained in the absence of TNFα/zVAD.fmc.

Row | pIC50 [1] | Structure (SMILES) | pIC50 (U937 cells) | IC50 (U937 cells; U-937, Comparator table 5, read-out: U937 IC50 (uM) Mean) [µM]
1 | 7.51 | N#Cc1cncc([C@@H]2CCON2C(=O)C2CCN(c3ccnc(Cl)n3)CC2)c1 [compound 147, 5-[(3S)-2-[1-(2-chloropyrimidin-4-yl)piperidine-4-carbonyl]isoxazolidin-3-yl]pyridine-3-carbonitrile] | 7.24 | 
2 | 7.71 | Cc1cc([C@@H]2CCON2C(=O)C2CCN(c3cc(C(N)=O)ncn3)CC2)co1 [Ex. 109] | 8.27 | 
3 | 7.63 | CC1(C(=O)N2OCC[C@H]2c2cncc(C#N)c2)CCN(c2nccc(C(N)=O)n2)CC1 [Ex. 019] | 7.24 | 
4 | 6.76 | N#Cc1cc([C@@H]2CCON2C(=O)C2CCN(c3nccc(C(N)=O)n3)CC2)cnn1 [compound 179, 2-[4-[(3S)-3-(6-cyanopyridazin-4-yl)isoxazolidine-2-carbonyl]-1-piperidyl]pyrimidine-4-carboxamide] | 5.69 | 
5 | 8.07 | NC(=O)c1nc(N2CCC(C(=O)N3OCC[C@H]3c3cnccn3)CC2)ncc1F [compound 75] | 8.56 | 
6 | 8.03 | Cc1cncc([C@@H]2CCON2C(=O)C2CCN(c3nccc(C(N)=O)n3)CC2)n1 [compound 44] | 8.07 | 
7 | 7.19 | Cn1cc(C2CCON2C(=O)C2CCN(c3nccc(C(N)=O)n3)CC2)cn1 (racemic) [Ex. 046*] | 6.22 | 
8 | 7.81 | Cc1ccc([C@@H]2CCON2C(=O)C2CCN(c3ncc(C)c(C(N)=O)n3)CC2)s1 [compound 182, 5-methyl-2-[4-[(3S)-3-(5-methyl-2-thienyl)isoxazolidine-2-carbonyl]-1-piperidyl]pyrimidine-4-carboxamide] | 8.15 | 
9 | 6.12 | O=C(O)c1ccnc(N2CCC(C(=O)N3OCCC3c3cncc(F)c3)CC2)n1 (racemic) [Ex. 054*] | < 5.00 | 
10 | 7.52 | N#Cc1cncc([C@@H]2CCON2C(=O)[C@@H]2CCN(c3nccc(C(N)=O)n3)C[C@@H]2F)c1 (single isomer, unassigned) [Ex. 095] | 6.92 | 
11 | 6.43 | CCOC(=O)c1nccc(N2CCC(C(=O)N3OCC[C@H]3c3cncc(C#N)c3)CC2)n1 [compound 149, ethyl 4-[4-[(3S)-3-(5-cyano-3-pyridyl)isoxazolidine-2-carbonyl]-1-piperidyl]pyrimidine-2-carboxylate] | 5.21 | 
12 | 7.86 | Cc1cnc(N2CCC(C(=O)N3OCC[C@H]3c3cncc(F)c3)CC2)nc1C(N)=O [Ex. 098] | 7.49 | 
13 | 7.51 | CCOC(=O)c1ncnc(N2CCC(C(=O)N3OCC[C@H]3c3cncc(C#N)c3)CC2)c1F [Ex. 057, Ethyl 6-[4-[(3S)-3-(5-cyano-3-pyridyl)isoxazolidine-2-carbonyl]-1-piperidyl]-5-fluoro-pyrimidine-4-carboxylate] | 6.96 | 
14 | 7.34 | CSc1nccc(N2CCC(C(=O)N3OCC[C@H]3c3cncc(C#N)c3)CC2)n1 [compound 146, 5-[(3S)-2-[1-(2-methylsulfanylpyrimidin-4-yl)piperidine-4-carbonyl]isoxazolidin-3-yl]pyridine-3-carbonitrile] | 6.64 | 
15 | 7.61 | COC(=O)c1ccnc(N2CCC(C(=O)N3OCC[C@H]3c3cncc(C#N)c3)CC2)n1 [compound 100] |  | 
16 | 7.50 | N#Cc1ccnc(N2CCC(C(=O)N3OCCC3c3ccc(N)nc3)CC2)n1 (racemic) [Ex. 037*] | 6.75 | 
17 |  | O=C(C1CCN(c2ncnc(Cl)n2)CC1)N1OCC[C@H]1c1cnccn1 [compound 174, [1-(4-chloro-1,3,5-triazin-2-yl)-4-piperidyl]-[(3S)-3-pyrazin-2-ylisoxazolidin-2-yl]methanone] | 5.52 | 
18 |  | CNC(=O)c1cncc(C2CCON2C(=O)C2CCN(c3cc(C(N)=O)ncn3)CC2)c1 (racemic) [Example 041] | < 5.00 | 
19 | 4.73 | N#Cc1cncc([C@H]2CCON2C(=O)C2CCN(c3nccc(C(N)=O)n3)CC2)c1 [Ex. 016] |  | 

Row | pIC50 [1] | Structure (SMILES) | pIC50 (U937 cells) | IC50 (U937 cells; U-937, Comparator table 5, read-out: U937 IC50 (uM) Mean) [µM]
20 |  | CC(C)(C)OC(=O)N1CC[C@@H](C(=O)N2OCC[C@H]2c2cncc(F)c2)[C@@H](F)C1 [F, reference compound] |  | > 10
21 |  | Cc1cncc([C@@H]2CCON2C(=O)C2CCN(c3nccc(C(N)=O)n3)CC2)c1 [compound 132, (S)-2-(4-(3-(5-methylpyridin-3-yl)isoxazolidine-2-carbonyl)piperidin-1-yl)pyrimidine-4-carboxamide] | 7.50 | 
22 |  | N#Cc1nc([C@@H]2CCON2C(=O)C2CCN(c3nccc(C(N)=O)n3)CC2)cs1 [Ex. 188] | 6.69 | 
23 |  | CC(=O)Nc1cncc([C@@H]2CCON2C(=O)C2CCN(c3nccc(C(N)=O)n3)CC2)c1 [Ex. 043] | 5.57 | 
24 |  | CC1(C(=O)N2OCC[C@H]2c2cncc(C#N)c2)CCN(c2ncc(F)c(OCC#N)n2)CC1 [Ex. 018] | 7.99 | 
25 | 4.88 | NC(=O)c1cc(N2CCC(C(=O)N3OCCC3c3ccc4nccn4c3)CC2)ncn1 (racemic) [Example 015, 6-[4-[3-imidazo[1,2-a]pyridin-6-ylisoxazolidine-2-carbonyl]-1-piperidyl] pyrimidine-4-carboxamide TFA salt] |  | 
26 |  | NC(=O)c1cncc([C@@H]2CCON2C(=O)C2CCN(c3ncc(F)c(C(N)=O)n3)CC2)c1 [Ex. 101] | 6.35 | 
27 |  | CCOC(=O)COc1nc(N2CCC(C(=O)N3OCC[C@H]3c3cncc(C#N)c3)CC2)ncc1F [Ex. 027, Ethyl 2-[2-[4-[(3S)-3-(5-cyano-3-pyridyl)isoxazolidine-2-carbonyl]-1-piperidyl]-5-fluoro-pyrimidin-4-yl]oxyacetate] | 6.28 | 
28 |  | Cn1ccc(C2CCON2C(=O)C2CCN(c3cc(C(N)=O)ncn3)CC2)n1 (racemic) [Example 008, 6-[4-[3-(1-methylpyrazol-3-yl)isoxazolidine-2-carbonyl]-1-piperidyl] pyrimidine-4-carboxamide TFA salt] | 5.28 | 
29 |  | NC(=O)c1ccnc(N2CCC(C(=O)N3OCC[C@H]3c3cnccn3)CC2)n1 [Ex. 074] | 8.01 | 
30 |  | Cc1ccc([C@@H]2CCON2C(=O)C2CCN(c3cc(C#N)ncn3)CC2)cn1 [compound 128, (S)-6-(4-(3-(6-methylpyridin-3-yl)isoxazolidine-2-carbonyl)piperidin-1-yl)pyrimidine-4-carbonitrile] | 6.65 | 
31 |  | Cn1ccc(C2CCON2C(=O)C2CCN(c3nccc(C(N)=O)n3)CC2)n1 (racemic) [Ex. 002*] | 5.74 | 
32 |  | COc1cncc([C@@H]2CCON2C(=O)C2CCN(c3ncc(F)c(C(N)=O)n3)CC2)n1 [Ex. 177] | 8.23 | 
33 |  | CC1(C(=O)N2OCC[C@H]2c2cncnc2)CCN(c2ncc(F)c(OCC#N)n2)CC1 [Ex. 062] | 7.91 | 
34 |  | N#Cc1ccc([C@@H]2CCON2C(=O)C2CCN(c3ncc(F)c(C#N)n3)CC2)nc1 [compound 112, 2-[4-[(3S)-3-(5-cyano-2-pyridyl)isoxazolidine-2-carbonyl]-1-piperidyl]-5-fluoro-pyrimidine-4-carbonitrile] | 7.12 | 
35 |  | NC(=O)c1nc(N2CCC(C(=O)N3OCC[C@H]3c3ccc(Cl)cn3)CC2)ncc1F [Ex. 084] | 7.75 | 
36 |  | NC(=O)c1cncc(C2CCON2C(=O)C2CCN(c3nccc(C(N)=O)n3)CC2)c1 (racemic) [Ex. 029*] | 5.66 | 
37 |  | NC(=O)c1ccnc(N2CCC(C(=O)N3OCC[C@H]3c3cncnc3)CC2)n1 [Ex. 003] | 6.54 | 
38 |  | N#CCOc1nc(N2CCC(C(=O)N3OCC[C@H]3c3cncnc3)CC2)ncc1F [Ex. 063] | 7.82 | 
